From PubChem BioAssay AID2060497 (Molecular Pharmacology Branch, DTP, NCI, 2025)
One block for each compound: values may come before it.

System: 317291-083-R-J1-PDC complex spheroids, viability
Experiment: Anticancer human tumor 317291-083-R-J1-PDC patient-derived soft tissue sarcoma cell line growth inhibition [GQUAD]
Conditions: for IC50: curve of first compound; for viability, T/C: stronger effect = lower value
Description: DNA G-quadruplex Stabilizer Agents in Combinations in Complex Spheroids
A high-throughput screen of multi-cell type tumor spheroids was designed to identify active combinations of DNA G-quadruplex stabilizer agents and targeted small molecules. Complex spheroids include a stromal component modeled by human endothelial cells (HUVEC) and fibroblasts modeled by human mesenchymal stem cells (MSCs). The concentration ranges selected for each drug and investigational agent were based upon clinically achievable concentrations if the clinical Cmax of the agent was known.
Compounds. The drugs and investigational agents: pidnarulex (CX-5461; NSC782164), APTO-253 (NSC789042), BRACO-19 (NSC847499), peposertib (NSC802822), ceralasertib (NSC780249), elimusertib (NSC800525), camonsertib (NSC841442), AZD-1390 (NSC803789), olaparib (NSC753686), talazoparib (NSC767125), ART-558 (NSC835418), sotorasib (NSC818433), MRTX-1133 (NSC836407), SN-38 (NSC673596), topotecan (NSC609699), etoposide (NSC141540), doxorubicin (NSC123127), gemcitabine (NSC613327), 5-fluorouracil (NSC19893), paclitaxel (NSC125973), vemurafenib (NSC761431), panobinostat (NSC761190), R-306465 (JNJ-16241199; NSC773264), adavosertib (NSC754352), TP-3654 (NSC805149), carboplatin (NSC241240), KSQ-4279 (NSC840948), and staurosporine (NSC755774) were obtained from the National Cancer Institute (NCI) Developmental Therapeutics Program Chemical Repository (34). The FDA-approved anticancer drug set is available from the NCI Developmental Therapeutics Program. […] The stock solutions were prepared in dimethyl sulfoxide (DMSO, Sigma-Aldrich, St. Louis, MO, cat. D2650) at 800-fold the tested concentration and stored at -70 degrees C prior to their use. All drugs and investigational agents were tested over a range starting from a high concentration at or near the clinical Cmax and decreasing in half-log increments. If the clinical Cmax for an agent had not been determined, the highest concentration tested was 10 microM.
2.3 Cell Culture. All cells were maintained in an incubator at 37 degrees C and 5% CO2 with 95% humidity. The PDC lines were cultured according to standard operating procedures established by the NCI PDMR. All PDCs were thawed and cultured in Matrigel-coated flasks prepared with a working solution of 1X Ham's F-12 nutrient mix, without supplementation (Invitrogen, cat. 11765054), 100 U/mL penicillin-streptomycin (Invitrogen, cat. 15140122), and 2.5% Matrigel (Corning Inc., cat. 354248) for the first three passages. The 857933-349-R-J2-PDC line was cultured in 6C/Colon 1B media, which includes advanced DMEM/F-12 (Thermo Fisher Scientific, cat. 12634028), 10 mM HEPES (Thermo Fisher Scientific, cat. 15630080), 1X GlutaMAX supplement (Thermo Fisher Scientific, cat. 35050061), 0.1 mg/mL primocin (InvivoGen, cat. ant-pm-2), 10% defined fetal bovine serum, heat inactivated (HyClone Laboratories Inc., cat. SH30070.03HI), 50% L-WRN conditioned media (ATCC, cat. CRL-3276), 1.25 mM N-Acetyl-L-cysteine (Sigma-Aldrich, cat. A9165), 10 mM nicotinamide (Sigma-Aldrich, cat. N0636), 1X B-27 supplement (Thermo Fisher Scientific, cat. 17504044), 1X N-2 supplement (Thermo Fisher Scientific, cat. 17502048), 10 microM Y-27632 dihydrochloride (Tocris Bioscience, cat. 1254), and 50 ng/mL human EGF recombinant protein (Thermo Fisher Scientific, cat. PHG0311). The 485176-168-R4-J1-PDC line was cultured in Panc media, which includes all 6C/Colon 1B media components plus 100 ng/mL human FGF-10 (Thermo Fisher Scientific, cat. 100-26), 500 nM SB-431542 (Selleckchem, cat. S1067), and gastrin (Tocris, cat. 3006).
[…]

[1] = second compound 0.0316 µM, first compound 0.0316 µM
[2] = second compound 0.0316 µM, first compound 0.316 µM
[3] = second compound 0.1 µM, first compound 0.0316 µM
[4] = second compound 0.1 µM, first compound 0.316 µM
[5] = second compound 0.316 µM, first compound 0.0316 µM
[6] = second compound 0.316 µM, first compound 0.316 µM
[7] = second compound 1 µM, first compound 0.0316 µM
[8] = second compound 1 µM, first compound 0.316 µM
[9] = second compound 3.16 µM, first compound 0.0316 µM
[10] = second compound 3.16 µM, first compound 0.316 µM
[11] = second compound 10 µM, first compound 0.0316 µM
[12] = second compound 10 µM, first compound 0.316 µM
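Further: spheroids exposed to compounds for one week before readout.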
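Wherever viability, T/C is given: percent viability relative to DMSO vehicle wells taken as 100%.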

- IC50 (second compound 0.0316 µM): 35.5 nM
- IC50 (second compound 0.1 µM): 19 nM
- IC50 (second compound 0.316 µM): < 0.999 nM
- IC50 (second compound 1 µM): < 0.999 nM
- IC50 (second compound 3.16 µM): < 0.999 nM
- IC50 (second compound 10 µM): < 0.999 nM
SMILES: CC[C@@]1(O)C(=O)OCc2c1cc1n(c2=O)Cc2cc3c(CN(C)C)c(O)ccc3nc2-1 + Cc1cnc(CNC(=O)c2c(=O)c3ccc(N4CCCN(C)CC4)nc3n3c2sc2ccccc23)cn1
- viability, T/C (second compound 0.0316 µM, first compound 0.000999 µM): 86.2%
- viability, T/C (second compound 0.0316 µM, first compound 0.00316 µM): 93.8%
- viability, T/C (second compound 0.0316 µM, first compound 0.00999 µM): 91.7%
- viability, T/C [1]: 53.3%
- viability, T/C (second compound 0.0316 µM, first compound 0.0999 µM): 20.8%
- viability, T/C [2]: 15.8%
- viability, T/C (second compound 0.1 µM, first compound 0.000999 µM): 71%
- viability, T/C (second compound 0.1 µM, first compound 0.00316 µM): 80.7%
- viability, T/C (second compound 0.1 µM, first compound 0.00999 µM): 78.1%
- viability, T/C [3]: 29%
- viability, T/C (second compound 0.1 µM, first compound 0.0999 µM): 21.9%
- viability, T/C [4]: 12.8%
- viability, T/C (second compound 0.316 µM, first compound 0.000999 µM): 43.5%
- viability, T/C (second compound 0.316 µM, first compound 0.00316 µM): 52.9%
- viability, T/C (second compound 0.316 µM, first compound 0.00999 µM): 28.2%
- viability, T/C [5]: 20.7%
- viability, T/C (second compound 0.316 µM, first compound 0.0999 µM): 17.3%
- viability, T/C [6]: 9.62%
- viability, T/C (second compound 1 µM, first compound 0.000999 µM): 35.7%
- viability, T/C (second compound 1 µM, first compound 0.00316 µM): 28.2%
- viability, T/C (second compound 1 µM, first compound 0.00999 µM): 25.6%
- viability, T/C [7]: 20.1%
- viability, T/C (second compound 1 µM, first compound 0.0999 µM): 14.7%
- viability, T/C [8]: 15.3%
- viability, T/C (second compound 3.16 µM, first compound 0.000999 µM): 39.7%
- viability, T/C (second compound 3.16 µM, first compound 0.00316 µM): 37.8%
- viability, T/C (second compound 3.16 µM, first compound 0.00999 µM): 16.1%
- viability, T/C [9]: 14.7%
- viability, T/C (second compound 3.16 µM, first compound 0.0999 µM): 13.4%
- viability, T/C [10]: 7.16%
- viability, T/C (second compound 10 µM, first compound 0.000999 µM): 28.9%
- viability, T/C (second compound 10 µM, first compound 0.00316 µM): 30.3%
- viability, T/C (second compound 10 µM, first compound 0.00999 µM): 45.9%
- viability, T/C [11]: 19.7%
- viability, T/C (second compound 10 µM, first compound 0.0999 µM): 24%
- viability, T/C [12]: 12.2%

- IC50 (second compound 0.0316 µM): 72.5 nM
- IC50 (second compound 0.1 µM): 47.1 nM
- IC50 (second compound 0.316 µM): < 31.6 nM
- IC50 (second compound 1 µM): < 31.6 nM
- IC50 (second compound 3.16 µM): < 31.6 nM
- IC50 (second compound 10 µM): < 31.6 nM
SMILES: COc1cccc2c1C(=O)c1c(O)c3c(c(O)c1C2=O)CC(O)(C(=O)CO)CC3OC1CC(N)C(O)C(C)O1 (centres undefined) + Cc1cnc(CNC(=O)c2c(=O)c3ccc(N4CCCN(C)CC4)nc3n3c2sc2ccccc23)cn1
- viability, T/C [1]: 84%
- viability, T/C (second compound 0.0316 µM, first compound 0.1 µM): 34%
- viability, T/C [2]: 21.1%
- viability, T/C (second compound 0.0316 µM, first compound 1 µM): 10.7%
- viability, T/C (second compound 0.0316 µM, first compound 3.16 µM): 1.84%
- viability, T/C (second compound 0.0316 µM, first compound 10 µM): 4.21%
- viability, T/C [3]: 62.7%
- viability, T/C (second compound 0.1 µM, first compound 0.1 µM): 24%
- viability, T/C [4]: 18.2%
- viability, T/C (second compound 0.1 µM, first compound 1 µM): 8.39%
- viability, T/C (second compound 0.1 µM, first compound 3.16 µM): 3.34%
- viability, T/C (second compound 0.1 µM, first compound 10 µM): 2.66%
- viability, T/C [5]: 45.8%
- viability, T/C (second compound 0.316 µM, first compound 0.1 µM): 35%
- viability, T/C [6]: 22.1%
- viability, T/C (second compound 0.316 µM, first compound 1 µM): 6.47%
- viability, T/C (second compound 0.316 µM, first compound 3.16 µM): 2.05%
- viability, T/C (second compound 0.316 µM, first compound 10 µM): 2.05%
- viability, T/C [7]: 38.1%
- viability, T/C (second compound 1 µM, first compound 0.1 µM): 18.4%
- viability, T/C [8]: 15.9%
- viability, T/C (second compound 1 µM, first compound 1 µM): 12.2%
- viability, T/C (second compound 1 µM, first compound 3.16 µM): 1.05%
- viability, T/C (second compound 1 µM, first compound 10 µM): 1.27%
- viability, T/C [9]: 18.5%
- viability, T/C (second compound 3.16 µM, first compound 0.1 µM): 15.8%
- viability, T/C [10]: 11.6%
- viability, T/C (second compound 3.16 µM, first compound 1 µM): 0.53%
- viability, T/C (second compound 3.16 µM, first compound 3.16 µM): 0.36%
- viability, T/C (second compound 3.16 µM, first compound 10 µM): 1.14%
- viability, T/C [11]: 16.5%
- viability, T/C (second compound 10 µM, first compound 0.1 µM): 15.6%
- viability, T/C [12]: 20.6%
- viability, T/C (second compound 10 µM, first compound 1 µM): 20.7%
- viability, T/C (second compound 10 µM, first compound 3.16 µM): 0.34%
- viability, T/C (second compound 10 µM, first compound 10 µM): 0.34%
